Patent US10815275B2, “Antimicrobial peptoids with improved selectivity and use thereof” (priority 2018, dated 2020)
In brackets after ≈: the same amount, converted by molar mass. Non-standard residues stand in square brackets, D forms with d. Residues, ends and D or L forms follow the SMILES beside them. Nspe = C[C@H](NCC(=O)O)c1ccccc1; Nphe = O=C(O)CNCc1ccccc1; Nlys = NCCCCNCC(=O)O

Assays:
E. coli strain ATCC25922 = assay type: cell-based; conditions: for MBC E. coli: ATCC25922; for MIC E. coli: ATCC25922, 18 h
Procedure: (§1) In order to measure antimicrobial activity of the peptoids, Gram-positive S. aureus strain KCTC1621, or Gram-negative E. coli strain ATCC25922 was treated with the peptoids prepared in Preparation Example 1, and minimum inhibitory concentrations were measured. Peptoid NOS. 1 and 2 are already known peptoids and were used for the purpose of making a comparison with novel peptoids in terms of antimicrobial activity.
(§2) Specifically, S. aureus strain KCTC1621 or E. coli strain ATCC25922 was inoculated into Mueller Hinton Broth (MHB2) liquid medium on which cations were adjusted, cultured at a temperature of 37° C. for 18 hours, and then subcultured for 4 hours. Thereafter, the strains were diluted with MHB2 liquid medium containing 0.2% bovine serum albumin and 0.01% acetic acid so that each bacterial number was 2×10^5 colony-forming units (CFU) per 1 mL, and dispensed into 96-well microtiter plates at 100 μL each. A peptoid stock which is 40-fold more concentrated than a concentration to be tested was added to each well at 2.5 μL or lower so that the peptoid stock was 2-fold serially diluted using sterile water. Thereafter, the plates were incubated at a temperature of 37° C. for 18 hours.
(§3) Thereafter, absorbance was measured at a wavelength of 600 nm using a microplate reader (Bio-Rad). The lowest peptoid concentration that completely suppresses growth of microorganisms was measured by a minimum inhibitory concentration (MIC) and a minimum bactericidal concentration (MBC), and the measurement results are shown in Table 5 below. Each of the MIC values was calculated as an average value of numerical values obtained through three independent experiments.

[1] = tested on: S. aureus strain KCTC1621; assay type: cell-based; conditions: for MBC S. aureus: KCTC1621; for MIC S. aureus: KCTC1621, 18 h
Procedure: as §1, §2, §3

red blood cells = assay: Hemolytic activity on red blood cells; assay type: cell-based, mouse
Procedure: In order to identify, through red blood cell hemolytic activity in mice, whether the peptoids synthesized in Preparation Example 1 are cytotoxic, red blood cells isolated from 10 mL of mouse blood were washed three times with phosphate-buffered saline (PBS, mixed solution of 35 mM phosphate buffer/150 mM NaCl, pH 7.4), and then centrifuged at a centrifugal force of 1,000 ×g for 10 minutes. A 10% (v/v) red blood cell solution diluted with PBS was dispensed into a 96-well microtiter plate at 150 μL each, and then a peptide solution was added at 50 μL each. Thereafter, the 96-well microtiter plate was incubated at a temperature of 37° C. for 1 hour.
The incubated 96-well microtiter plate was centrifuged at a centrifugal force of 1,000×g for 5 minutes. Thereafter, supernatant was taken at 100 μL each and transferred to a new 96-well microtiter plate. Then, absorbance at a wavelength of 540 nm was measured (Table 6).
In this case, a value obtained in a case of being treated with 0.1% (v/v) Triton X-100 was set as 100% hemolysis, and hemolytic activity (degree of cell destruction) of the peptoids was calculated using the following Equation 1. In the Equation 1, A is absorbance of the peptoid solution at a wavelength of 540 nm, B is absorbance of 0.1% Triton X-100 at a wavelength of 540 nm, and C is absorbance of the PBS solution at a wavelength of 540 nm. In this case, Peptoid NO. […] Degree of cell destruction (% hemolysis)=(A−C)/(B−C)[…] [Equation 1]
In Table 6, HD10 means a peptoid concentration which causes 10% hemolysis of red blood cells, and HD50 means a peptoid concentration which causes 50% hemolysis of red blood cells. In addition, Hmax is a hemolysis rate (%) at 200 μM which is the highest peptoid concentration used in the experiment.
Hemolytic activity of Peptoid NOS. 1, 18 to 23, and the peptide Pexiganan was measured in the same manner as in Experimental Example 2.

P. aeruginosa (PA01) = assay: MIC in multidrug-resistant bacteria panel, modified microdilution; assay type: cell-based; conditions: overnight, 37° C.
Procedure: (§4) Minimum inhibitory concentrations of the prepared peptoids for multidrug-resistant bacteria were measured using a modified microdilution method in Difco Mueller Hinton medium, and tests were done on a panel of bacterial pathogens which have resistance and tolerance against common antibiotics.
(§5) Briefly, a peptoid concentrate, which is 10-fold more concentrated than a final concentration, was serially diluted with a medium containing 0.2% bovine serum albumin and 0.01% acetic acid. 10 μL of the 10-fold concentrated peptoid concentrate and 90 μL of Muller Hinton medium were added to each well of a 96-well polypropylene microtitre plate. Bacteria were added to the plate so that a final concentration thereof was 2×10^5 CFU/mL, and then incubated overnight at a temperature of 37° C. The minimum inhibitory concentration was defined as a concentration at which no bacterial growth is observed.

[2] = tested on: S. epidermidis (ET-024 MRSA); assay: as above; assay type: cell-based; conditions: overnight, 37° C.
Procedure: as §4, §5

E. coli = assay: Selectivity analysis, HD10 divided by MIC for E. coli; conditions: HD10 of Table 6 divided by MIC for E. coli ATCC25922
Procedure: In order to identify changes in selectivity depending on alteration of degree of folding in helical structure of peptoids, selectivity of each peptoid was calculated using the resultant values measured in the Experimental Examples 1 and 2. The selectivity was obtained by dividing the HD10 value by the minimum inhibitory concentration for E. coli (Table 8).

B. subtilis = assay type: cell-based; conditions: 18 h
Procedure: (§6) In order to measure antimicrobial activity of the peptoids, Gram-positive B. subtilis or Gram-negative E. coli strain DH5α was treated with Peptoid NOS. 1, 18 to 23, and the peptide Pexiganan, and minimum inhibitory concentrations were measured. Peptoid NOS. 1 and 2, and the peptide Pexiganan are already known antimicrobial peptoids and peptides, and were used for the purpose of making a comparison with novel peptoids in terms of antimicrobial activity.
(§7) Specifically, B. subtilis or E. coli DHS a was inoculated into LB liquid medium, and cultured at a temperature of 37° C. for 18 hours. Thereafter, the bacteria were diluted with LB medium so that each bacterial number was 2×10^5 colony-forming units (CFU) per 1 mL, and dispensed into 96-well microtiter plates at 100 μL each. The peptoid, which is 2-fold serially diluted using sterile water, was added to each well at 100 μL each. The plates were incubated at a temperature of 37° C. for 18 hours.
as §3, with “(MIC),” for “(MIC) and a minimum bactericidal concentration (MBC),”, “12” for “5”, “minimum inhibitory concentration” for “MIC”

E. coli strain DH5α = assay: Antimicrobial activity of peptoids with altered cationic residues, MIC; assay type: cell-based; conditions: LB medium, 18 h
Procedure: as §6, §7
as §3, with “(MIC),” for “(MIC) and a minimum bactericidal concentration (MBC),”, “12” for “5”, “minimum inhibitory concentration” for “MIC”

in vitro = assay type: cell-based; conditions: human
Procedure: In order to determine whether the peptoids were cytotoxic against human cell lines, […] cell line (Korean Cell Line Bank) which is a human lung cell line was cultured in a DMEM (Dulbecco's modified Eagle's medium) culture solution containing 10% (v/v) fetal bovine serum (FBS) at 5% CO2 and a temperature of 37° C. 100 μL of DMEM medium was dispensed into each well of a 96-well microtiter plate so that the number of cells was 1.3×10^4, and then incubated overnight at a temperature of 37° C. in a 5% CO2 incubator. In this case, a DMEM medium was used as a negative control. Thereafter, the peptoid which is 2-fold serially diluted using sterile water was added to each well, and then incubated for 24 hours.
After incubation, 20 μL of an MTS solution [3-(4,5-dimethylthiazol-2-yl)-5-(3-carboxymethoxyphenyl)-2-(4-sulfophenyl)-2H-tetrazolium, inner salt; MTS] was added thereto and incubated at a temperature of 37° C. for 4 hours. Thereafter, % survival was calculated by measuring absorbance at a wavelength of 490 nm using an ELISA reader. The % survival was calculated as a percentage obtained by dividing the absorbance value for a well-treated with the peptoid by the absorbance value for a well containing control cells which had not been treated with the peptoid.

E. coli (63103 ESBL) = assay: MIC in multidrug-resistant bacteria panel, modified microdilution; assay type: cell-based; conditions: overnight, 37° C.
Procedure: as §4, §5

S. aureus (ATCC25923) = assay: as above; assay type: cell-based; conditions: overnight, 37° C.
Procedure: as §4, §5

SMILES | MBC E. coli (E. coli strain ATCC25922) | MIC E. coli (E. coli strain ATCC25922) | MBC S. aureus [1] | MIC S. aureus [1] | HD50 (red blood cells) | minimum inhibitory concentration P. aeruginosa (PA01) (P. aeruginosa (PA01)) | minimum inhibitory concentration S. epidermidis (ET-024 MRSA) [2] | Selectivity [HD10/MIC (E. coli)] (E. coli) | MIC B. subtilis (B. subtilis) | MIC E. coli (E. coli strain DH5α) | CC50 at 24 h (in vitro) | HD10 (red blood cells) | minimum inhibitory concentration E. coli (63103 ESBL) (E. coli (63103 ESBL)) | minimum inhibitory concentration S. aureus (ATCC25923) (S. aureus (ATCC25923))
C[C@@H](c1ccccc1)N(CC(=O)N(CCCCN)CC(=O)N(CC(=O)N(CC(=O)N(CCCCN)CC(=O)N(CC(=O)N(CC(=O)N(CCCCN)CC(=O)N(CC(=O)N(CC(N)=O)Cc1ccccc1)Cc1ccccc1)Cc1ccccc1)Cc1ccccc1)Cc1ccccc1)Cc1ccccc1)C(=O)CN(C(=O)CNCCCCN)[C@@H](C)c1ccccc1 [compound 17] (H-[Nlys][Nspe][Nspe][Nlys][Nphe][Nphe][Nlys][Nphe][Nphe][Nlys][Nphe][Nphe]-NH2) | 25 µM (≈ 43.4 µg/mL) | 25 µM (≈ 43.4 µg/mL) | 3.1 µM (≈ 5.38 µg/mL) | 3.1 µM (≈ 5.38 µg/mL) | > 200 | 6.3 | <0.8 to 0.8 | 4.8 | – | – | – | – | – | –
C[C@@H](c1ccccc1)N(CC(N)=O)C(=O)CN(C(=O)CN(CCCCN)C(=O)CN(C(=O)CN(C(=O)CN(CCCCN)C(=O)CN(C(=O)CN(C(=O)CNCCCCN)[C@@H](C)c1ccccc1)[C@@H](C)c1ccccc1)[C@@H](C)c1ccccc1)[C@@H](C)c1ccccc1)[C@@H](C)c1ccccc1 [compound 18] (H-[Nlys][Nspe][Nspe][Nlys][Nspe][Nspe][Nlys][Nspe][Nspe]-NH2) | – | – | – | – | – | – | – | – | 1.6 µM (≈ 2.19 µg/mL) | 3.1 µM (≈ 4.24 µg/mL) | 40 µM | – | – | –
C[C@@H](c1ccc(Cl)cc1)N(CC(N)=O)C(=O)CN(C(=O)CN(CCCCN)C(=O)CN(C(=O)CN(C(=O)CN(CCCCN)C(=O)CN(C(=O)CN(C(=O)CN(CCCCN)C(=O)CN(C(=O)CN(C(=O)CNCCCCN)[C@@H](C)c1ccc(Cl)cc1)[C@@H](C)c1ccc(Cl)cc1)[C@@H](C)c1ccc(Cl)cc1)[C@@H](C)c1ccc(Cl)cc1)[C@@H](C)c1ccc(Cl)cc1)[C@@H](C)c1ccc(Cl)cc1)[C@@H](C)c1ccc(Cl)cc1 [compound 19] | – | – | – | – | 10.4 | – | – | – | 6.1 µM (≈ 12.8 µg/mL) | >6.1 µM | 3 µM | < 6.25 | – | –
C[C@@H](c1ccccc1)N(CC(N)=O)C(=O)CN(C(=O)CN(CCCCN)C(=O)CN(Cc1ccccc1)C(=O)CN(Cc1ccccc1)C(=O)CN(CCCCN)C(=O)CN(Cc1ccccc1)C(=O)CN(Cc1ccccc1)C(=O)CN(CCCCN)C(=O)CN(C(=O)CN(C(=O)CNCCCCN)[C@@H](C)c1ccccc1)[C@@H](C)c1ccccc1)[C@@H](C)c1ccccc1 [compound 11] | 25 µM (≈ 44.1 µg/mL) | 12.5 µM (≈ 22 µg/mL) | 6.3 µM (≈ 11.1 µg/mL) | 3.1 µM (≈ 5.47 µg/mL) | > 200 | 6.3 | <0.8 to 0.8 | 4.9 | – | – | – | 61.6 | 6.3 | 3.1
C[C@@H](c1ccccc1)N(CC(=O)N(CCCCN)CC(=O)N(CC(=O)N(CC(=O)N(CCCCN)CC(=O)N(CC(=O)N(CC(=O)N(CCCCN)CC(N)=O)[C@@H](C)c1ccccc1)[C@@H](C)c1ccccc1)[C@@H](C)c1ccccc1)[C@@H](C)c1ccccc1)C(=O)CN(C(=O)CNCCCCN)[C@@H](C)c1ccccc1 [compound 23] (H-[Nlys][Nspe][Nspe][Nlys][Nspe][Nspe][Nlys][Nspe][Nspe][Nlys]-NH2) | – | – | – | – | – | – | – | – | 0.8 µM (≈ 1.2 µg/mL) | 1.6 µM (≈ 2.4 µg/mL) | 80.5 µM | – | – | –
Cc1ccc([C@H](C)N(CC(N)=O)C(=O)CN(C(=O)CN(CCCCN)C(=O)CN(C(=O)CN(C(=O)CN(CCCCN)C(=O)CN(C(=O)CN(C(=O)CN(CCCCN)C(=O)CN(C(=O)CN(C(=O)CNCCCCN)[C@@H](C)c2ccc(C)cc2)[C@@H](C)c2ccc(C)cc2)[C@@H](C)c2ccc(C)cc2)[C@@H](C)c2ccc(C)cc2)[C@@H](C)c2ccc(C)cc2)[C@@H](C)c2ccc(C)cc2)[C@@H](C)c2ccc(C)cc2)cc1 [compound 20] | – | – | – | – | 8.3 | – | – | – | 0.8 µM (≈ 1.55 µg/mL) | >6.1 µM | 8 µM | < 6.25 | – | –
NCCCCNCC(=O)N(CC(=O)N(CC(=O)N(CCCCN)CC(=O)N(CC(=O)N(CC(=O)N(CCCCN)CC(=O)N(CC(=O)N(CC(=O)N(CCCCN)CC(=O)N(CC(=O)N(CC(N)=O)Cc1ccccc1)Cc1ccccc1)Cc1ccccc1)Cc1ccccc1)Cc1ccccc1)Cc1ccccc1)Cc1ccccc1)Cc1ccccc1 [compound 2] (H-[Nlys][Nphe][Nphe][Nlys][Nphe][Nphe][Nlys][Nphe][Nphe][Nlys][Nphe][Nphe]-NH2) | >25 µM | 25 µM (≈ 42.7 µg/mL) | 6.3 µM (≈ 10.8 µg/mL) | 3.1 µM (≈ 5.29 µg/mL) | >200/>200 | 6.3 | <0.8 to 0.8 | >8.0 | – | – | – | – | 12.5 | –
